# Measurements taken from patent US20160338967A1, “SUSTAINED RELEASE DEPOT FORMULATIONS OF T[…], AND USES THEREOF” (Kineta One, LLC, priority 2013, published 2016).
# How the values were obtained:
# [1] = tested on: delayed type hypersensitivity rat model; assay: Delayed type hypersensitivity rat model (ear induration); format: in vivo, Lewis rats; details: single injection of PLG depot formulation on day 0, 1,000-40,000 μg/kg; versus daily SC injection in buffer P6N
# Procedure: Therapeutic efficacy of ShK-186 and ShK-192 depot formulations in animal models of autoimmune disease including the delayed type hypersensitivity rat model. Lewis rats are vaccinated by SC administration to the base of the tail with 100 μg ovalbumin mixed 1:1 (v/v) in Complete Freund's Adjuvant (CFA) (OVA/CFA, 200 μL volume) on day 0 using a 20 G×1% needle. Delayed-type hypersensitivity (DTH) is elicited in the ear on Day 7 by injection of 20 μg OVA in 10 μL to the pinna of the ear of isoflurane-anesthetized animals using 29 G×1 needles. DTH is evaluated on Days 8 and 9 by measuring the induration of the site of antigen injection with a micrometer (caliper). Control treatments with ShK-186 or ShK-192 include SC injections of ShK-186 or ShK-192 at 100 μg/kg, 10 μg/kg, 3 μg/kg or 1 μg/kg given on day 0-7 (daily from the initial immunization). The control treatments are compared to a single injection of a depot formulation of ShK-186 or ShK-192 using a PLG polymer-based (in one example, PLG2A) sustained formulations at a dose of 1,000 μg/kg, 5,000 μg/kg, 10,000 μg/kg, 20,000 μg/kg, or 40,000 μg/kg given on day 0 (time of immunization).
# [2] = In vivo dose response/release of ShK-186 formulated with PLG2A, blood ELISA (Example 5); design: species or system Sprague Dawley rats
# Procedure: In vivo dose response of depot formulations using ShK-186 and ShK-192 with PLG2A. Preparation of depot formulations was performed as follows: 1.0 g of PLG2A was dissolved into 5.0 mL dichloromethane with mechanical stirring until the polymer was completely dissolved. A volume of 500 μL including three levels of ShK-186 (40, 20, and 10 mg/mL final concentration; in a 20 mM sodium phosphate aqueous buffer (pH 6.0) with 140 mM NaCl) was added separately into three separate PLG2A preparations and homogenized for 2 minutes with a 10×195 mm probe (26,000 rpm). The w/o emulsion was then poured into a 100 mL Pyrex® 1395 media bottle charged with 20 mL of 0.5% w/w DSS, and 20 mM phosphate (pH 7.0) water solution. The mixture was homogenized for 5 minutes at the same shear setting (26,000 rpm), with the beaker in thermal contact with melting ice (0° C.). The pH of the aqueous (external) phase was verified and adjusted if necessary to 5.0<pH<7.5.
# The formulation was then removed from shear, and stirred overnight at room temperature in a fume hood to allow solvent evaporation. The next morning the suspension was filtered through a 325 mesh screen and stored at room temperature with end over end mixing to avoid settling/clumping. Immediately before use by injection, the formulations were centrifuged utilizing the appropriate volume for 8 min, 4° C. at 2,000 g. The solid particles settled to the bottom, allowing for decanting of the almost clear supernatant, followed by replacement of aqueous solution with an appropriate volume and composition (e.g. PBS), followed by mechanical mixing to resuspend the particles.
# Sprague Dawley rats (females, ages 8-16 weeks, n=3) were given a SC injection of 1 mL of the indicated depot formulations. Blood was drawn at various time points and assayed for ShK-186 by ELISA methods.
# In a repeat experiment, the time during which blood levels of ShK-186 were monitored was extended.
# [3] = tested on: chronic relapsing/remitting autoimmune encephalomyelitis rat model; assay: Chronic relapsing/remitting autoimmune encephalomyelitis rat model (clinical scoring); format: in vivo, dark agouti rats; details: single injection of PLG2A depot formulation, 1,000-40,000 μg/kg; prevention and treatment models
# Procedure: Therapeutic efficacy of ShK-186 and ShK-192 depot formulations in animal models of autoimmune disease including the chronic relapsing/remitting autoimmune encephalomyelitis rat model. Chronic relapsing/remitting autoimmune encephalomyelitis (CR-EAE) is induced by SC injection of spinal cord homogenate (Bioreclamation, Inc.) and CFA to dark agouti rats (Harlan). Animals typically recover by 30 days after onset of CR-EAE. Rats are treated with different amounts of ShK-186 or ShK-192 (1, 3, 5, 10, and 100 μg/kg) in SC injections daily, every two days, or every three days at different time points prior to and after elicitation of CR-EAE by immunization. These regimens are compared to single injection of depot formulations (ShK-186 or ShK-192 with PLG2A) at doses of 1,000 μg/kg, 5,000 μg/kg, 10,000 μg/kg, 20,000 μg/kg, or 40,000 μg/kg given at the beginning of the experiment (time immunization, prevention model) and after onset of disease, i.e., after a rat has a clinical score of 1 or greater (treatment model).
# The efficacy of the treatments is measured by clinical scoring of the severity of CR-EAE in daily and depot formulation-treated rats. […] Subsets of rats are sacrificed at specific time points of the experiment to harvest tissues or to collect whole blood samples.
# [4] = In vivo release of ShK-192 formulated with PLG2A, blood ELISA (Example 5); design: species or system Sprague-Dawley rats; details: PLG2A depot formulation, 10,000 μg/kg, single SC injection, n=3 (FIG. 7)
# Procedure: The next part of this Example was performed to test formulation and in vivo release of ShK-192 over extended time durations. Similar to the methods used for ShK-186, 1.0 g of PLG2A was dissolved into 5.0 mL dichloromethane with mechanical stirring until the polymer was completely dissolved. A volume of 500 μL including a low dose of ShK-192 (10 mg/mL final concentration; in a 20 mM sodium phosphate aqueous buffer (pH 6.0) with 140 mM NaCl) was formulated by homogenizing for 2 minutes with a 10×195 mm probe (26,000 rpm). The w/o emulsion was then transferred into a 100 mL Pyrex® 1395 media bottle charged with 20 mL of 0.5% w/w DSS, 20 mM phosphate (pH 7.0), water solution.
# The mixture was held in thermal contact with ice water (0° C.) and homogenized for 5 minutes at 26,000 rpm, with the final pH of the aqueous (external) phase verified and adjusted to 5.0<pH<7.5. The formulation was then removed from homogenization and mechanically stirred overnight at room temperature in a fume hood to permit solvent evaporation. The next day the suspension was first filtered through a 325 mesh screen, then stored at room temperature with end over end mixing to minimize settling/clumping. Immediately before in vivo use, the formulations were centrifuged utilizing the appropriate volume for 8 minutes, at 4° C. at 2,000 g. […]
Substance,reduction of induration (inflammatory response) in DTH [1],"shape of in vivo release profiles across doses ([2]; 40,000, 20,000 and 10,000 μg/kg (FIG. 6))","duration of sustained in vivo release ([2]; single SC dose (1 mL) 20,000 μg/kg, repeat experiment (FIG. 8))","time blood serum levels are maintained ([2]; single SC injection, 40,000, 20,000 and 10,000 μg/kg, n=3 (FIG. 6))",reduction in clinical scores of CR-EAE [3],duration of release from depot formulation [4],time of maximum concentration [4]
(L-PhosphoTyr)-AEEAc-RSCIDTIPKSRCTAFQCKHSMKYRLSFCRKTCGTC-amide [ShK-186],significant therapeutic effect,"geometrically similar, but scaled by the area under the curve to the total dose",at least 56 days,more than 30 days,significant therapeutic effects,–,–
(Para-phosphono-Phe)-AEEAc-RSCIDTIPKSRCTAFQCKHS(Nle)KYRLSFCRKTCGTC-amide [ShK-192],significant therapeutic effect,–,–,–,significant therapeutic effects,over 30 days,~12 days
